The values below come from patent US10973922B2, “Glycoprotein-toxic payload conjugates” (GLYKOS FINLAND OY, priority 2013, dated 2021).

The subject of data set [1] is SKOV-3 ovarian cancer cell. Briefly: In vitro cytotoxicity of dolastatin derivatives (PrestoBlue cell viability). Format: cell-based, Human. Particulars: for IC50: concentration range wherein SKOV-3 cell viability falls to 50%, 96 h, measured range 1 nM-10 μM; for cytotoxicity compared to 1 (MMAF): SKOV-3, applied to cell culture medium; for cytotoxicity compared to 2 (monomethyldolastatin 10): SKOV-3. As to the method:
Human ovarian cancer cell line SKOV-3 was from the ATCC (Manassas, Va., USA). The cells were grown according to the manufacturer's recommendations. Log phase cultures were collected and 5000 cells/well were seeded onto 96-well plates and incubated for 24 h. Serial dilutions of test molecules from a stock solution of 100 μM in 10% DMSO were made in cell culture medium, added to cells (maximum concentration of dimethylsulphoxide was 1%) and cultures were incubated further for 96 h. Cell viability was evaluated using PrestoBlue cell viability reagent (Life Technologies, Carlsbad, Calif., USA) according to the manufacturer's instructions. Cells were incubated for 2 h, and dye reduction was measured by absorbance at 570 nm. The compounds were assayed 1-2 times in triplicate.
Results of an exemplary assay are shown in FIG. 1, in which compound numbering is according to Example 1. The results are expressed in Table 1 as IC50 values of the analyzed derivatives.

The nature of data set [2]: Hydrophilicity by reverse-phase HPLC elution. Conditions: C-18 reverse-phase column, eluted at lower ACN concentration. Format: physicochemical. An excerpt:
The products were purified by Äkta purifier 10 (GE Healthcare) HPLC instrument with Gemini-NX-5u C-18 reverse-phase column (4.6×250 mm, 110 Å (Phenomenex)) eluted with ACN gradient in aqueous ammonium hydrogen carbonate or aqueous trifluoroacetic acid.

Where a SMILES comes first, the peptide text is derived from it. [ ]: non-standard residue; d: D form. Dolaproine = CO[C@@H]([C@@H]1CCCN1)[C@@H](C)C(=O)O; Dil = CC[C@H](C)[C@H](NC)[C@@H](CC(=O)O)OC; NMeV = CN[C@H](C(=O)O)C(C)C

In the case of `CC[C@H](C)[C@@H]([C@@H](CC(=O)N1CCC[C@H]1[C@H](OC)[C@@H](C)C(=O)N[C@@H](Cc1ccccc1)C(=O)O)OC)N(C)C(=O)[C@@H](NC(=O)[C@@H](NC)C(C)C)C(C)C` [Compound 1, Monomethylauristatin F, reference compound] (H-[NMeV]V[Dil][Dolaproine]F-OH), the IC50 (commonly the concentration at which inhibition is half-maximal) in data set [1] was in the range of 0.1 to 1 µM.
As to `CN[C@H](C(=O)N[C@H](C(=O)N(C)[C@@H](C(C)C)[C@@H](CC(=O)N1CCC[C@H]1[C@H](OC)[C@@H](C)C(=O)N[C@@H](Cc1ccccc1)c1nccs1)OC)C(C)C)C(C)C` [Compound 2, monomethyldolastatin 10, reference compound], the half-inhibitory concentration (IC50) in data set [1] is < 0.001 µM.
In turn, `CCC(C)C(C(CC(=O)N1CCCC1C(OC)C(C)C(=O)NC(Cc1ccccc1)C(=O)O)OC)N(C)C(=O)C(NC(=O)C(C(C)C)N(C)CCC(O)C(O)C(O)CO)C(C)C` [Compound 5, N-(2-deoxy-D-glucosyl)-MMAF] registered an IC50 in data set [1] (Homo sapiens, SK-OV-3) of 1 µM. For the same molecule, in data set [1], the “cytotoxicity compared to 1 (MMAF)” value is given as “equally or only slightly less cytotoxic”. The “hydrophilicity compared to MMAF (1) and N-(3-butynyl)-MMAF (6)” value in data set [2] is “more hydrophilic”.
`C#CCCN(C)C(C(=O)NC(C(=O)N(C)C(C(C)CC)C(CC(=O)N1CCCC1C(OC)C(C)C(=O)NC(Cc1ccccc1)C(=O)O)OC)C(C)C)C(C)C` (stereo not drawn) [Compound 6, N-(3-butynyl)-MMAF]: in data set [1] (Homo sapiens, SK-OV-3), the IC50 was < 0.001 µM. For the same molecule, in data set [1], the “cytotoxicity compared to 1 (MMAF)” value is “more cytotoxic”.
`CCC(C)C(C(CC(=O)N1CCCC1C(OC)C(C)C(=O)NC(Cc1ccccc1)C(=O)O)OC)N(C)C(=O)C(NC(=O)C(C(C)C)N(C)CC(O)C(O)C(O)C(O)COC1OC(CO)C(O)C(O)C1O)C(C)C` [Compound 8, N-[6-O-(β-D-galactopyranosyl)-D-galactosyl]-MMAF] displayed an IC50 in data set [1] (Homo sapiens, SK-OV-3) of 1 to 10 µM. Besides, in data set [1], the “cytotoxicity compared to 1 (MMAF)” value was “less cytotoxic”.
For `CCC(C)C(C(CC(=O)N1CCCC1C(OC)C(C)C(=O)NC(Cc1ccccc1)C(=O)O)OC)N(C)C(=O)C(NC(=O)C(C(C)C)N(C)CC(O)C(O)C(OC1OC(CO)C(OC2OC(CO)C(O)C(O)C2O)C(O)C1O)C(O)CO)C(C)C` [Compound 10, N-{4-O-[4-O-(α-D-galactopyranosyl)-β-D-galactopyranosyl]-D-glucosyl}-MMAF], in data set [1] (Homo sapiens, SK-OV-3), the IC50 lay within 1 to 10 µM.
With `CCC(C)C(C(CC(=O)N1CCCC1C(OC)C(C)C(=O)NC(Cc1ccccc1)C(=O)O)OC)N(C)C(=O)C(NC(=O)C(C(C)C)N(C)CC(O)C(O)C(OC1OC(CO)C(O)C(OC2(C(=O)O)CC(O)C(NC(C)=O)C(C(O)C(O)CO)O2)C1O)C(O)CO)C(C)C` [Compound 11, N-{4-O-[3-O-(α-N-acetylneuraminyl)-β-D-galactopyranosyl]-D-glucosyl}-MMAF], in data set [1], the “cytotoxicity compared to 1 (MMAF)” value is “less cytotoxic” and the IC50 is > 10 µM.
For `CCC(C)C(C(CC(=O)N1CCCC1C(OC)C(C)C(=O)NC(Cc1ccccc1)c1nccs1)OC)N(C)C(=O)C(NC(=O)C(C(C)C)N(C)CC(O)C(O)C(O)C(O)CN=[N+]=[N-])C(C)C` [Compound 13, N-(6-azido-6-deoxy-D-galactosyl)-dolastatin 10], the IC50 in data set [1] (Homo sapiens, SK-OV-3) is < 0.001 µM. In addition, the “cytotoxicity compared to 2 (monomethyldolastatin 10)” value in data set [1] is given as “equally or only slightly less cytotoxic”.
The like results for `CCC(C)C(C(CC(=O)N1CCCC1C(OC)C(C)C(=O)NC(Cc1ccccc1)C(=O)O)OC)N(C)C(=O)C(NC(=O)C(C(C)C)N(C)C(=O)CCCC(=O)O)C(C)C` (stereo not drawn) [Compound 14b, N-glutaryl-MMAF] were, in that order, 0.1 to 1 µM and “equally or only slightly less cytotoxic”.
In data set [1], “N-(6-O-propargyl-D-galactosyl)-MMAF [Compound 3]” gave a half-inhibitory concentration (IC50) of 0.1 to 10 µM.
In data set [1], “N-(6-azido-6-deoxy-D-galactosyl)-MMAF [Compound 4]” registered an IC50 of 0.1 to 1 µM.
